Tested on: vascular smooth muscle cell (SMC)
Assay: Effect on proliferation of vascular smooth muscle cell (SMC), XTT assay
Format: cell-based
Settings: 1 uM; XTT at 1, 4 and 7 days; versus untreated control, which grew until 7 days; FIG. 1
Description: As cells used in a cell culture, the vascular smooth muscle cell (SMC) which is a smooth muscle cell, and the human umbilical vein endothelial cell (HUVEC) which is the cell for promoting vascular re-endothelialization were purchased from Korea Cell Line Bank, respectively. The cell culture was performed by culturing the vascular smooth muscle cell (SMC) and the human umbilical vein endothelial cell (HUVEC) in Dulbecoco's modified eagle medium (DMEM) with 10% fetal bovine serum (FBS) under conditions of 37° C. and 5% CO2. […]
(§1) 5×10^4 of SMC cells cultured according to Example 2 were cultured in the 24-well cell culture plate and then treated with 1 uM of the peptide compound prepared by Example 2 (hereinafter, referred to as ‘EVR-P’). […] After the reaction, 200 ul of the culture medium was transferred from each well to a 96 well cell culture dish, and degree of color change was measured from absorbance at a 450 nm wavelength by a spectroscopy.
as §1, with “the known Everolimus (EVR)(LC Laboratories).” for “the peptide compound prepared by Example 2 (hereinafter, referred to as ‘EVR-P’).”, “to the” for “to a”

For CO[C@H]1C[C@@H]2CC[C@@H](C)[C@@](O)(O2)C(=O)C(=O)N2CCCC[C@H]2C(=O)O[C@H]([C@H](C)C[C@@H]2CC[C@@H](OCCO)[C@H](OC)C2)CC(=O)[C@H](C)/C=C(\C)[C@@H](O)[C@@H](OC)C(=O)[C@H](C)C[C@H](C)/C=C/C=C/C=C/1C [EVR, Everolimus], the “SMC cell proliferation (XTT, absorbance at 450 nm)” value was “cell proliferation was inhibited”.

— patent publication US9603892B2, “Peptide compound for inhibiting restenosis and promoting re-endothelialization and method for preparing the same” (Chonnam National University Hospital, priority 2014, dated 2017)
